Experimental data reported in ChEMBL document CHEMBL1149947, “Identification and chemical synthesis of MDL 105,212, a non-peptide tachykinin antagonist with high affinity for NK1 and NK2 receptors” (Bioorg Med Chem Lett, 1996).

Experiments:
Substance-P receptor = Substance-P receptor (Homo sapiens, UniProt P25103); assay: Binding affinity against Neurokinin 1(NK1) receptor from human IM-9 cells using [I]-Bolton Hunter labeled SP; format: cell-based
Substance-K receptor = target: T1, Substance-K receptor (Homo sapiens, UniProt P21452); assay: Binding affinity against human NK2 receptors from HSKR-1 cells using [125I]-Iodohistidyl NKA; format: cell-based
T1 sequence (P21452 whole entry): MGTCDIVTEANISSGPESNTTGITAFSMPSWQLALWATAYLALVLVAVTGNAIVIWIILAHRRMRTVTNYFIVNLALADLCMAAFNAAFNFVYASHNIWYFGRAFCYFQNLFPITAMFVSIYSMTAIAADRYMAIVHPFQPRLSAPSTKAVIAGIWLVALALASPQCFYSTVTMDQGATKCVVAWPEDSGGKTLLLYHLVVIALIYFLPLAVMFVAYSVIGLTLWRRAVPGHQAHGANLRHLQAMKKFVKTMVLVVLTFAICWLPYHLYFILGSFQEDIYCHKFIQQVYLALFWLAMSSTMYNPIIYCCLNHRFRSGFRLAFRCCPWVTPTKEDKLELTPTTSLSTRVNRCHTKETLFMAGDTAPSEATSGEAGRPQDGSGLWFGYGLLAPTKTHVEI

Neuromedin-K receptor = target: T2, Neuromedin-K receptor (Cavia porcellus, UniProt P30098); assay: NK3 IC50 determined using [125I]bolton Hunter labeled eledoisin at NK3 receptors from guinea pig cerebral cortex; format: tissue-based
T2 sequence (P30098 whole entry): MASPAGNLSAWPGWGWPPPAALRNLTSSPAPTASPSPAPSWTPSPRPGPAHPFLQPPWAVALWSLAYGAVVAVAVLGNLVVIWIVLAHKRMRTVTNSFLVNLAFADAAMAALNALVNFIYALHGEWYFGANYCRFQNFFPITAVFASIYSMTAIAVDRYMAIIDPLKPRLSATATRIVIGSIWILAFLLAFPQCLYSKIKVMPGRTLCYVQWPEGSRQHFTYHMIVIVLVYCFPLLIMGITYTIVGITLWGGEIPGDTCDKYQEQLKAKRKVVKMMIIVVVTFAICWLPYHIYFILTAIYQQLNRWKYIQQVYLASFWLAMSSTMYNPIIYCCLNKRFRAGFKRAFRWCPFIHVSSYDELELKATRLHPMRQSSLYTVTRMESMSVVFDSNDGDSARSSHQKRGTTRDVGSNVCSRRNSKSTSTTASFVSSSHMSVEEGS

Substance-P receptor, sequence (P25103 whole entry): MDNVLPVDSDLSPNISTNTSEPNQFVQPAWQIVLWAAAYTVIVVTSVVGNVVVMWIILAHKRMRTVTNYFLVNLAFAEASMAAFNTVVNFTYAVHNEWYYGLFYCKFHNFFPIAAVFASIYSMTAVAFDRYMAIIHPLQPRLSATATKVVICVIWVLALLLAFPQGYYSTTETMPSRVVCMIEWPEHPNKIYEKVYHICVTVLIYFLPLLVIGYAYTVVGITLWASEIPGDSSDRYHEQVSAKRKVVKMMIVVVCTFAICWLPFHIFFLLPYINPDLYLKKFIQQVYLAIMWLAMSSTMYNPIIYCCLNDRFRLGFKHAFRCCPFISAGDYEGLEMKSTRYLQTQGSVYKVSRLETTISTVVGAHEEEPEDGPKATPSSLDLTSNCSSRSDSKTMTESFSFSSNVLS

Structure (SMILES)	IC50 (Substance-P receptor) [nM]	IC50 (Substance-K receptor) [nM]	IC50 (Neuromedin-K receptor) [nM]
COc1cc(C(=O)N2CC[C@](CCN3CCC(C(N)=O)(c4ccccc4)CC3)(c3ccc(Cl)c(Cl)c3)C2)cc(OC)c1OC	3.11	8.4	21
COc1cc(C(=O)N2CCC(CCN3CCC(C(N)=O)(c4ccccc4)CC3)(c3ccc(Cl)c(Cl)c3)C2)cc(OC)c1OC(C)C (configuration not stated)	65.9	42.4	
COc1cc(C(=O)N2CCC(CCN3CCC(C(N)=O)(c4ccccc4)CC3)(c3ccc(Cl)c(Cl)c3)C2)cc(OC)c1OC (configuration not stated)	6.19	18.8	
COc1ccc(C(=O)N2CCC(CCN3CCC(C(N)=O)(c4ccccc4)CC3)(c3ccc(Cl)c(Cl)c3)C2)cc1 (configuration not stated)	634	11.8	
COc1ccccc1CN[C@H]1C2CCN(CC2)[C@H]1C(c1ccccc1)c1ccccc1 [CP-96345]		> 10000	> 10000
COc1ccccc1C(=O)N1CCC(CCN2CCC(C(N)=O)(c3ccccc3)CC2)(c2ccc(Cl)c(Cl)c2)C1 (configuration not stated)	73.6	16.7	
NC(=O)C1(c2ccccc2)CCN(CCC2(c3ccc(Cl)c(Cl)c3)CCN(C(=O)c3ccccc3)C2)CC1 (configuration not stated)	271		
CC(C)Oc1cccc(CC(=O)N2CCC(CCN3CCC(C(N)=O)(c4ccccc4)CC3)(c3ccc(Cl)c(Cl)c3)C2)c1 (configuration not stated)	138	548	
COc1cc(C(=O)N2CCC(CCN3CCC(C(N)=O)(c4ccccc4)CC3)(c3ccc(Cl)c(Cl)c3)C2)cc(OC)c1C (configuration not stated)	64.1	13.4	
CC(=O)NC1(c2ccccc2)CCN(CC[C@H](CN(C)C(=O)c2ccccc2)c2ccc(Cl)c(Cl)c2)CC1 [SAREDUTANT]	593	0.44	208
COc1c(C)cc(C(=O)N2CCC(CCN3CCC(C(N)=O)(c4ccccc4)CC3)(c3ccc(Cl)c(Cl)c3)C2)cc1C (configuration not stated)	168	6.94	
COc1cccc(OC)c1C(=O)N1CCC(CCN2CCC(C(N)=O)(c3ccccc3)CC2)(c2ccc(Cl)c(Cl)c2)C1 (configuration not stated)	22.8	53.2	
COc1ccc(C(=O)N2CCC(CCN3CCC(C(N)=O)(c4ccccc4)CC3)(c3ccc(Cl)c(Cl)c3)C2)c(OC)c1 (configuration not stated)	127		
COc1cc(OC)cc(C(=O)N2CCC(CCN3CCC(C(N)=O)(c4ccccc4)CC3)(c3ccc(Cl)c(Cl)c3)C2)c1 (configuration not stated)	69.9	19.1	
COc1ccccc1CC(=O)N1CCC(CCN2CCC(C(N)=O)(c3ccccc3)CC2)(c2ccc(Cl)c(Cl)c2)C1 (configuration not stated)	48.2		
COc1cc(CC(=O)N2CCC(CCN3CCC(C(N)=O)(c4ccccc4)CC3)(c3ccc(Cl)c(Cl)c3)C2)cc(OC)c1OC (configuration not stated)	66.2	55.5	
COc1c(Br)cc(C(=O)N2CCC(CCN3CCC(C(N)=O)(c4ccccc4)CC3)(c3ccc(Cl)c(Cl)c3)C2)cc1Br (configuration not stated)	313	4.04	
COc1cccc(C(=O)N2CCC(CCN3CCC(C(N)=O)(c4ccccc4)CC3)(c3ccc(Cl)c(Cl)c3)C2)c1 (configuration not stated)	107	12	
CCOC(=O)Oc1c(OC)cc(C(=O)N2CCC(CCN3CCC(C(N)=O)(c4ccccc4)CC3)(c3ccc(Cl)c(Cl)c3)C2)cc1OC (configuration not stated)	252	96.3	
